Measurements published in ChEMBL document CHEMBL5696441 (Nat Chem Biol, 2011).

Columns and labels:
[1] = target: Tyrosine-protein kinase Srms (Homo sapiens) (UniProt Q9H3Y6); assay: Inhibition of SRMS (unknown origin) assessed as remaining activity at 1 uM by Kinome scan method relative to control
[2] = target: Angiopoietin-1 receptor (Homo sapiens) (UniProt Q02763); assay: Inhibition of TIE2 (unknown origin) assessed as remaining activity at 1 uM by Kinome scan method relative to control
[3] = target: Serine/threonine-protein kinase PLK1 (Homo sapiens) (UniProt P53350); assay: Inhibition of human PLK1 assessed as residual activity at 1 uM using RBER-CHKtide as substrate in presence of 33P-ATP by ProQinase assay relative to control
[4] = Anti-inflammatory activity against human derived medium respond PBMC cells assessed as inhibition in stimulated IL-13 cytokine release incubated for 2 hrs in the presence of LPS/SEB/aCD28 by Luminex based sandwich immunoassay; type: functional, cell-based
[5] = target: Mitogen-activated protein kinase kinase kinase 1 (Homo sapiens) (UniProt Q13233); assay: Inhibition of MAP3K1 (unknown origin) assessed as remaining activity at 1 uM by Kinome scan method relative to control
[6] = target: Activated CDC42 kinase 1 (Homo sapiens) (UniProt Q07912); assay: Inhibition of TNK2 (unknown origin) assessed as remaining activity at 1 uM by Kinome scan method relative to control
[7] = tested on: Fibroblast growth factor receptor 3 (Homo sapiens), P22607 [K650E]; assay: Inhibition of human FGFR3 K650E mutant assessed as residual activity at 1 uM using PolyEY as substrate in presence of 33P-ATP by ProQinase assay relative to control
[8] = target: Mitogen-activated protein kinase kinase kinase 5 (Homo sapiens) (UniProt Q99683); assay: Inhibition of human ASK1 assessed as residual activity at 1 uM using RBER-GSK3(14-27) as substrate in presence of 33P-ATP by ProQinase assay relative to control
[9] = target: Ephrin type-A receptor 5 (Homo sapiens) (UniProt P54756); assay: Inhibition of EPHA5 (unknown origin) assessed as remaining activity at 1 uM by Kinome scan method relative to control
[10] = target: Vascular endothelial growth factor receptor 1 (Homo sapiens) (UniProt P17948); assay: Inhibition of human VEGFR1 assessed as residual activity at 1 uM using polyEY as substrate in presence of 33P-ATP by ProQinase assay relative to control
[11] = target: Ephrin type-A receptor 8 (Homo sapiens) (UniProt P29322); assay: Inhibition of human EPHA8 assessed as residual activity at 1 uM using polyEy as substrate in presence of 33P-ATP by ProQinase assay relative to control
[12] = target: Serine/threonine-protein kinase 26 (Homo sapiens) (UniProt Q9P289); assay: Inhibition of human MST4 assessed as residual activity at 1 uM using RB-CTF as substrate in presence of 33P-ATP by ProQinase assay relative to control
[13] = target: Leukocyte tyrosine kinase receptor (Homo sapiens) (UniProt P29376); assay: Inhibition of LTK (unknown origin) assessed as remaining activity at 1 uM by Kinome scan method relative to control
[14] = tested on: Epidermal growth factor receptor (Homo sapiens), P00533 [L861Q]; assay: Inhibition of EGFR L861Q mutant (unknown origin) assessed as remaining activity at 1 uM by Kinome scan method relative to control
[15] = target: Dual specificity mitogen-activated protein kinase kinase 2 (Homo sapiens) (UniProt P36507); assay: Inhibition of human MEK2 assessed as residual activity at 1 uM using RBER-IRStide as substrate in presence of 33P-ATP by ProQinase assay relative to control
[16] = target: T1, Megakaryocyte-associated tyrosine-protein kinase (Homo sapiens) (UniProt P42679); assay: Inhibition of human MATK assessed as residual activity at 1 uM using polyEy as substrate in presence of 33P-ATP by ProQinase assay relative to control
T1 sequence (whole entry): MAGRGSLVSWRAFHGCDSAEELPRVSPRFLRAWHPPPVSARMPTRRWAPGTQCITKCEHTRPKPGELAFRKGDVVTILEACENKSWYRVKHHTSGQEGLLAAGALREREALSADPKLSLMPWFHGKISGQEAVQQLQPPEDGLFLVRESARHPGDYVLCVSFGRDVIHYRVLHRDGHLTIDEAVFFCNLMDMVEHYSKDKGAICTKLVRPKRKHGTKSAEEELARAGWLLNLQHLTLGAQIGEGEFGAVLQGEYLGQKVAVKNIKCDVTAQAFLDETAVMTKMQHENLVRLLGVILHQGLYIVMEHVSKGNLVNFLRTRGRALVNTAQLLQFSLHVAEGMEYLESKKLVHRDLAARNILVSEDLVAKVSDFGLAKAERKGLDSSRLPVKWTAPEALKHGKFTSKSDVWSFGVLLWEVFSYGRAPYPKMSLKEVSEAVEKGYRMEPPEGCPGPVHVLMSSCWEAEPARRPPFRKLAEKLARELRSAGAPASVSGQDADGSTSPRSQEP

[17] = tested on: Epidermal growth factor receptor (Homo sapiens), P00533 [UNDEFINED MUTATION]; assay: Inhibition of EGFR L747-T751del/Sins mutant (unknown origin) assessed as remaining activity at 1 uM by Kinome scan method relative to control
[18] = target: Serine/threonine-protein kinase PAK 5 (Homo sapiens) (UniProt Q9P286); assay: Inhibition of human PAK7 assessed as residual activity at 1 uM using bio-4xCHKT as substrate in presence of 33P-ATP by ProQinase assay relative to control
[19] = Anti-inflammatory activity against human derived medium respond PBMC cells assessed as inhibition in stimulated IL-6 cytokine release incubated for 2 hrs in the presence of LPS/SEB/aCD28 by Luminex based sandwich immunoassay; type: functional, cell-based
[20] = target: Casein kinase II subunit alpha' (Homo sapiens) (UniProt P19784); assay: Inhibition of CSNK2A2 (unknown origin) assessed as remaining activity at 1 uM by Kinome scan method relative to control
[21] = target: Calcium/calmodulin-dependent protein kinase type 1 (Homo sapiens) (UniProt Q14012); assay: Inhibition of CAMK1 (unknown origin) assessed as remaining activity at 1 uM by Kinome scan method relative to control
[22] = target: Mitogen-activated protein kinase 15 (Homo sapiens) (UniProt Q8TD08); assay: Inhibition of ERK8 (unknown origin) assessed as remaining activity at 1 uM by Kinome scan method relative to control
[23] = target: Serine/threonine-protein kinase 17B (Homo sapiens) (UniProt O94768); assay: Inhibition of DRAK2 (unknown origin) assessed as remaining activity at 1 uM by Kinome scan method relative to control
[24] = target: Angiopoietin-1 receptor (Homo sapiens) (UniProt Q02763); assay: Inhibition of human TIE2 assessed as residual activity at 1 uM using polyEY as substrate in presence of 33P-ATP by ProQinase assay relative to control
[25] = target: Casein kinase I isoform gamma-1 (Homo sapiens) (UniProt Q9HCP0); assay: Inhibition of human CK1gamma1 assessed as residual activity at 1 uM using casein as substrate in presence of 33P-ATP by ProQinase assay relative to control

Sequence of Angiopoietin-1 receptor (Homo sapiens) (Q02763 whole entry, canonical isoform): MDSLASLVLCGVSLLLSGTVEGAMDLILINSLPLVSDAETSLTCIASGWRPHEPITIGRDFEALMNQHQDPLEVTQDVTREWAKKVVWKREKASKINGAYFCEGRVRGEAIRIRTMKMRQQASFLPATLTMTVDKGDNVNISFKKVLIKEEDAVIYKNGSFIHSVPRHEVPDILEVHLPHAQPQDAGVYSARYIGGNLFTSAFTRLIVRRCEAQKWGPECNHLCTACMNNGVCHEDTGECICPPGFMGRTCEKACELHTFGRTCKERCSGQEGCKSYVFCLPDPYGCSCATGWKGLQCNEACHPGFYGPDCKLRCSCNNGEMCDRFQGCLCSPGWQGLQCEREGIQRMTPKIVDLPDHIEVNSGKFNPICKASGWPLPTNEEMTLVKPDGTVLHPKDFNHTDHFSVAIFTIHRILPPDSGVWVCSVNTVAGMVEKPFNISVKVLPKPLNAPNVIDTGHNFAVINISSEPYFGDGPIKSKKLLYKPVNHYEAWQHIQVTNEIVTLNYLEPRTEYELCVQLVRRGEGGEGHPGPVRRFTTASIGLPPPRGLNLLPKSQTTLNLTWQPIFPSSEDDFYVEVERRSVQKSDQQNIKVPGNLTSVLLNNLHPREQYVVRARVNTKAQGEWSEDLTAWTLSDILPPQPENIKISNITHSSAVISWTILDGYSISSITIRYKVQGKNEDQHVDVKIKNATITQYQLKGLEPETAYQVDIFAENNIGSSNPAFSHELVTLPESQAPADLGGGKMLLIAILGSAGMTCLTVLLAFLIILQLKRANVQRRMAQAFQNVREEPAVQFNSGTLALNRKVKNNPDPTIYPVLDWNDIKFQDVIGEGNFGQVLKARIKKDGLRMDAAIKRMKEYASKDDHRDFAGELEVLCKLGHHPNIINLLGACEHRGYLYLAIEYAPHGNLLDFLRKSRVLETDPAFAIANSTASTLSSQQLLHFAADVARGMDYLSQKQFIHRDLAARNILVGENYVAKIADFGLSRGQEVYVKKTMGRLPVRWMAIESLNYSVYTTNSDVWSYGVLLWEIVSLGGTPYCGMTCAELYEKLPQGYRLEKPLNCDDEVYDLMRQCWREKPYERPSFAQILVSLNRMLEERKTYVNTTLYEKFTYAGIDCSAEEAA
Sequence of Tyrosine-protein kinase Srms (Homo sapiens) (Q9H3Y6 whole entry): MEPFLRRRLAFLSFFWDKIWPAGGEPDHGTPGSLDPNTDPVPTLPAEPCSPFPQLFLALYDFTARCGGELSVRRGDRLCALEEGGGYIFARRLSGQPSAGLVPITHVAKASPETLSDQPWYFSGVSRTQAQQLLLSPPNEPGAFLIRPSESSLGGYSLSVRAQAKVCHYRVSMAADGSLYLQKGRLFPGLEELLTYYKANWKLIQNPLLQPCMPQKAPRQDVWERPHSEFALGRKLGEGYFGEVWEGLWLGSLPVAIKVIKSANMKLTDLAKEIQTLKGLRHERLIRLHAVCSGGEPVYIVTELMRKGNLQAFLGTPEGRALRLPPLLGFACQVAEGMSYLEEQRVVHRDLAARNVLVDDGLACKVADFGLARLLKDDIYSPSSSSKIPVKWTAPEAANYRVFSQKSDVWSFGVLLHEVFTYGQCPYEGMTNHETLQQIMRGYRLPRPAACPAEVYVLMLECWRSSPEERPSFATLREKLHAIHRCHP
Sequence of Dual specificity mitogen-activated protein kinase kinase 2 (Homo sapiens) (P36507 whole entry): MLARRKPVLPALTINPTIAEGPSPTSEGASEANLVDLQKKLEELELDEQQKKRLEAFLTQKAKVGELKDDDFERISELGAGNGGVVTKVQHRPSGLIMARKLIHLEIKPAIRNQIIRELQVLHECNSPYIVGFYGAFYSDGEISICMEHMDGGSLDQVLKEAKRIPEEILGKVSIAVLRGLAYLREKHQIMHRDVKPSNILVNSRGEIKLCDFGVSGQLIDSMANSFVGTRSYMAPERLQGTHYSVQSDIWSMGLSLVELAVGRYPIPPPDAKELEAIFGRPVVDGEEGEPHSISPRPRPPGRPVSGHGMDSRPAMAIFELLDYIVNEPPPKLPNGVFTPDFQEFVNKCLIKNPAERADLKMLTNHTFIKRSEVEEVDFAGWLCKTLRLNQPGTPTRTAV
Sequence of Vascular endothelial growth factor receptor 1 (Homo sapiens) (P17948 whole entry): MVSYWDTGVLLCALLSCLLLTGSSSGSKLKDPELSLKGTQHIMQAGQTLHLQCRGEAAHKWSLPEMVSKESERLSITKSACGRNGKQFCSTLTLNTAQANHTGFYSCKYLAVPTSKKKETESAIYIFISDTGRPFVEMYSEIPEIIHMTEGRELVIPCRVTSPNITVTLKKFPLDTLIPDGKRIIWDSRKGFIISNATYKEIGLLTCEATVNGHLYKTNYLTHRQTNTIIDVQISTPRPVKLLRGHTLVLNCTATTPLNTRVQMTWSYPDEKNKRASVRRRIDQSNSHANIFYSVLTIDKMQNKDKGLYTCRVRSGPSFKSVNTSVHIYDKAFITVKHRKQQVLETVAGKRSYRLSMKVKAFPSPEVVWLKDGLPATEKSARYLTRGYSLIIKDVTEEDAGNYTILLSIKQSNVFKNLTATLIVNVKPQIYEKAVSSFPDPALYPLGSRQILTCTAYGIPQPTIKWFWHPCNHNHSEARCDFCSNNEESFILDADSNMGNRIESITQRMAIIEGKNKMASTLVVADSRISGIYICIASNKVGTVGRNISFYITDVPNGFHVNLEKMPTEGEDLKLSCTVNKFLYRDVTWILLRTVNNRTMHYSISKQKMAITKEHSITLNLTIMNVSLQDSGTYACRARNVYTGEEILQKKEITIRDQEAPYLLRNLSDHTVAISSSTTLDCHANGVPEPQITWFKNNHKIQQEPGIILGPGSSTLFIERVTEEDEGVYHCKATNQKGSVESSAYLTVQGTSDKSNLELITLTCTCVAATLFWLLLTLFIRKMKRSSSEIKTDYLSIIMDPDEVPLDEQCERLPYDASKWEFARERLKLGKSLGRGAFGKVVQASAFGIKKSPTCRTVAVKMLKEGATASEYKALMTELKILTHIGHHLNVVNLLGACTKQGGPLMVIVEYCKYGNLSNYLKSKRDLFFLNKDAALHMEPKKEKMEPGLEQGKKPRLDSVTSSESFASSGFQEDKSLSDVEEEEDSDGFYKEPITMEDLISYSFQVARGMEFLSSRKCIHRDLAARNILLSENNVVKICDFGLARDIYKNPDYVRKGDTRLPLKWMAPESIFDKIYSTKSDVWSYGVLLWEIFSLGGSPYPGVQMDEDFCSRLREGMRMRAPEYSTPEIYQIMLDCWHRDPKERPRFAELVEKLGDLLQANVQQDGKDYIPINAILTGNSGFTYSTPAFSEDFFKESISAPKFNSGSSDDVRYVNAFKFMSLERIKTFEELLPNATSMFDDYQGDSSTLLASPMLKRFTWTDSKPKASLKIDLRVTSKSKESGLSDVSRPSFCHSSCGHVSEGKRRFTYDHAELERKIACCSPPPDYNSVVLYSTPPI
Sequence of Fibroblast growth factor receptor 3 (Homo sapiens), P22607 [K650E] (P22607 whole entry K650E): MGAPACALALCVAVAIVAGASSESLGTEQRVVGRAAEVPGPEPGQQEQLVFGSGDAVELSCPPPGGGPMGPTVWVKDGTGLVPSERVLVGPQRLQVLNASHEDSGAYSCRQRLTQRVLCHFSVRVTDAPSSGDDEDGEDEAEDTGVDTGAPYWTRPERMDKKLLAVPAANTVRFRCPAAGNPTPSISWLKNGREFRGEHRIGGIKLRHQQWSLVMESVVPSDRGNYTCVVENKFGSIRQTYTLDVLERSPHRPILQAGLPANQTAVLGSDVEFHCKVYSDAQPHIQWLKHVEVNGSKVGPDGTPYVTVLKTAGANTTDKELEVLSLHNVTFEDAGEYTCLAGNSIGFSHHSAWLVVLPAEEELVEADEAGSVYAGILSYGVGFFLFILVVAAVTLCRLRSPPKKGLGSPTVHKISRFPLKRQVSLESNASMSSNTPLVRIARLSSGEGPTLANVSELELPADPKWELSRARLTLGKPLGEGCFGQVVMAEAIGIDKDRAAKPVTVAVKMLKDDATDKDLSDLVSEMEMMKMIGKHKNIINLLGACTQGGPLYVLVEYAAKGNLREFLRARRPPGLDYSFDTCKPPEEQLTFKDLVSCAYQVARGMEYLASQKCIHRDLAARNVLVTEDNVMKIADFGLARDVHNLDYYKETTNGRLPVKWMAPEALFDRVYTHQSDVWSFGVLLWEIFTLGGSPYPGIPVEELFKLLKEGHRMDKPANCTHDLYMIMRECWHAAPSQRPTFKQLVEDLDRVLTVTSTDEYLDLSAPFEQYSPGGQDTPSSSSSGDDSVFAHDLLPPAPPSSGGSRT
Sequence of Serine/threonine-protein kinase 17B (Homo sapiens) (O94768 whole entry): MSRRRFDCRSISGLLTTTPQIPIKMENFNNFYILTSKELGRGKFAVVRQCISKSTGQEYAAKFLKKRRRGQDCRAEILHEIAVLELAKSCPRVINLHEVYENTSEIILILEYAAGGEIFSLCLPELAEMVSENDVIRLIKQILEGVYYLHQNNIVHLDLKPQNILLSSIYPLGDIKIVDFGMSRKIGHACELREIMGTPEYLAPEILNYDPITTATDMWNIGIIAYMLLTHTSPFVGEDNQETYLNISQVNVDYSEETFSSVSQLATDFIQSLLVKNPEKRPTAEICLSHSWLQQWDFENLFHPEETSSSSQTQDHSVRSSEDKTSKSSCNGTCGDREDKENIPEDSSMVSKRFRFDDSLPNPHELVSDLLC
Sequence of Mitogen-activated protein kinase 15 (Homo sapiens) (Q8TD08 whole entry): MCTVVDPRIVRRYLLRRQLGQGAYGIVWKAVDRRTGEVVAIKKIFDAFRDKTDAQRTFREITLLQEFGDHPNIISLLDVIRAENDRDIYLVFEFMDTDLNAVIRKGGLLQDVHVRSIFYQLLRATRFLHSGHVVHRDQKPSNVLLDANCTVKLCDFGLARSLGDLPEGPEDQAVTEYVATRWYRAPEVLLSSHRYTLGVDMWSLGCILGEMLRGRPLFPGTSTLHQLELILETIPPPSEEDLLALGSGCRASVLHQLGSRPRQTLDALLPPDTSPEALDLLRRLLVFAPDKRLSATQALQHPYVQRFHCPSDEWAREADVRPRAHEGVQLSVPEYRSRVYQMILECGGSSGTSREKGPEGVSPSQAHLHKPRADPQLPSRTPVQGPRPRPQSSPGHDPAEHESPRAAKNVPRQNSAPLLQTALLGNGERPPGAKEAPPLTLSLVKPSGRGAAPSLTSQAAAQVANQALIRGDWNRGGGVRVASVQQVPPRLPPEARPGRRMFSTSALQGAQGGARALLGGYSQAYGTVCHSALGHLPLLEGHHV

O=C1c2ccc(Nc3ccc(F)cc3F)cc2CCc2ccc(OC[C@H](O)CO)cc21 [Skepinone-L]
Activity [1]: 90% | Activity [2]: 100% | Activity [3]: 97% | IC50 [4]: 4380 nM | Activity [5]: 100% | Activity [6]: 100% | Activity [7]: 99% | Activity [8]: 103% | Activity [9]: 98% | Activity [10]: 113% | Activity [11]: 95% | Activity [12]: 106% | Activity [13]: 100% | Activity [14]: 72% | Activity [15]: 99% | Activity [16]: 111% | Activity [17]: 98% | Activity [18]: 87% | IC50 [19]: 780 nM | Activity [20]: 100% | Activity [21]: 100% | Activity [22]: 99% | Activity [23]: 99% | Activity [24]: 98% | Activity [25]: 97%
